From US20010053848A1, “Hetero-oligomeric G protein-coupled receptors as novel drug targets” (priority 2000, published 2001)
Where two headings read alike, the source gives them in different places. Marks after values point to notes of the source that are not given here.

Columns and labels:
[1] = target: T1, delta C-tail hSSTR5 with DOR (Homo sapiens, UniProt P35346+P41143, DEL319-364); experiment: Inhibition of forskolin-stimulated cAMP, delta C-tail hSSTR5 co-expressed with DOR in CHO-K1 cells; format: cell-based; conditions: naltrindole (10^−5 M)
T1 construct: expressed in transfected cells

[2] = target: T2, DOR and SSTR5 hetero-oligomer (Homo sapiens, UniProt P35346+P41143); experiment: Inhibition of FSK-stimulated cAMP, hSSTR5/DOR cotransfectants; format: cell-based; conditions: SST-14 plus naltrindole
T2 construct: expressed in transfected cells

[3] = target: wild type hSSTR5 and DOR (Homo sapiens, UniProt P35346+P41143); conditions: for effect on inhibition of radioligand binding induced by GTPγS: [125I] LTT SST-28 radioligand
Description: LTT SST-28 binding by the cotransfectants. In order to characterize G protein function, wild type hSSTR5 and DOR were stably coexpressed in CHO-K1 cells.

[4] = target: HA-SSTR5 and D2R hetero-oligomer (Homo sapiens, UniProt P14416+P35346); experiment: pbFRET microscopy, CHO-K1 cells co-expressing HA-SSTR5 and D2R; format: cell-based
Description: Generally, FRET efficiencies are determined indirectly by measuring changes in the quantum yield of any competitive donor deactivation process upon introduction of an acceptor molecule. Donor photobleaching represents such a competitive process which is exploited in pbFRET-microscopy. The effective FRET efficiency E is calculated from the photobleaching time constants of the donor obtained in the absence (τD−A) and presence (τD+A) of acceptor according to: [formula]
CHO-K1 cells, stably cotransfected with HA-hSSTR5 and D2R, were grown on glass coverslips for 24 hours, treated with various agonists/antagonists for 30 minutes at 37° C., washed and fixed in 1% paraformaldehyde for 30 minutes on ice. […] Coverslips were mounted on microscope slides and used for pbFRET-microscopy the day after.
pbFRET experiments were performed on a Leica DMLB fluorescence microscope equipped with epi-illumination. An OSRAM HBO 100 W Hg lamp was used as excitation light source and the objective was a Leica pl-fluotar 40× oil immersion lens. […] For each cell, a sequence of 20 images was acquired during donor-photobleaching. One image was collected every 4 s with exposure time of 1 s. Exposure as well as time delays were software controlled.
Images were corrected for dark current, background and flatness. For analysis of the photobleaching decay, only the high-intensity plasma membrane region was considered, low intensity background and intracellular regions were masked.
HA-hSSTR5 and D2R were specifically labeled with FITC (donor) and rhodamine (acceptor), respectively using mouse monoclonal antibody against HA and rabbit polyclonal anti-D2R antibody, followed by reaction with FITC conjugated goat anti-mouse and rhodamine conjugated goat anti-rabbit secondary antibody. […] FIG. 4A Left panel: HA-SSTR5 (visualized with mouse anti-HA mAb and FITC-conjugated goat anti-mouse IgG). FIG. 4A Middle panel: D2R (rabbit polyclonal antibody and rhodamine-conjugated goat anti-rabbit IgG). […] Magnification: ×630.
The decrease in donor fluorescence intensity due to photobleaching during prolonged exposure to excitation light was monitored in the absence (FIG. 4B, I-III) or presence (FIG. 4B, IV-VI) of acceptor, i.e. in the potential presence of an additional donor deactivation process, FRET. Cells were reacted with primary antibodies and either with FITC-conjugated goat-anti-mouse IgG (donor in the absence of acceptor) (I-III), or with both FITC-conjugated goat-anti-mouse and rhodamine-conjugated goat-anti-rabbit IgG (donor in the presence of acceptor) (IV-VI). FIG. 4B I. Photobleaching of donor in the absence of acceptor (only selection of images shown). For analysis of the photobleaching decay, only the high-intensity membrane region was considered, low intensity background and intracellular regions were masked (black). […] FIG. 4B II. The average fluorescence intensity of each image was plotted versus the time that the cell had been exposed to excitation light. […] FIG. 4B III. The decrease of fluorescence intensity was analysed for each pixel of the unmasked region and fitted to a single-exponential decay. The resulting time constants were plotted in the histogram shown. […] Photobleaching of donor in the presence of acceptor. […] FIG. 4B, IV-VI.
The photobleaching decay was analyzed for the plasma membrane regions, both on a pixel-by-pixel basis (FIG. 4, III & VI) as well as averaged over each image (FIG. 4, II & V).

[5] = target: T3, delta318 SSTR5-D2R putative hetero-oligomers (Homo sapiens, UniProt P14416+P35346, DEL319-364); experiment: cell-based; conditions: for effect on SST inhibition of forskolin-stimulated cAMP: pertussis toxin 100 ng/ml pretreatment 2 h, sulpiride 10^−4 M
T3 construct: expressed in transfected cells

[6] = target: HA-SSTR5 and D2R (Homo sapiens, UniProt P14416+P35346); conditions: GTPγS 10^−4M, 30 min at 37° C.
[7] = intrathecal or epidural; post-operative and neoplastic pain; cited from earlier work
[8] = i.c.v. in monkeys; cited from earlier work

Chain of HA-SSTR5 and D2R hetero-oligomer (P35346 whole entry): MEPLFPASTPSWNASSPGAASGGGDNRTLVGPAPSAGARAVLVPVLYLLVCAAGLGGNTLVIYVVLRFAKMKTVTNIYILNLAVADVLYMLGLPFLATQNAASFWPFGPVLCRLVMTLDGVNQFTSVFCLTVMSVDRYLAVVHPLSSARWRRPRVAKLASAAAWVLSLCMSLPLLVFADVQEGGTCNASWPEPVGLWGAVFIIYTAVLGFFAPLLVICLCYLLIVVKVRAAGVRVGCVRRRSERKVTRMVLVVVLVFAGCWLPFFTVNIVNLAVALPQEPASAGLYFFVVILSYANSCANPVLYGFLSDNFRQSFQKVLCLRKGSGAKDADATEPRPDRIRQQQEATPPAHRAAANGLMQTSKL
Chain of HA-SSTR5 and D2R hetero-oligomer (P14416 whole entry): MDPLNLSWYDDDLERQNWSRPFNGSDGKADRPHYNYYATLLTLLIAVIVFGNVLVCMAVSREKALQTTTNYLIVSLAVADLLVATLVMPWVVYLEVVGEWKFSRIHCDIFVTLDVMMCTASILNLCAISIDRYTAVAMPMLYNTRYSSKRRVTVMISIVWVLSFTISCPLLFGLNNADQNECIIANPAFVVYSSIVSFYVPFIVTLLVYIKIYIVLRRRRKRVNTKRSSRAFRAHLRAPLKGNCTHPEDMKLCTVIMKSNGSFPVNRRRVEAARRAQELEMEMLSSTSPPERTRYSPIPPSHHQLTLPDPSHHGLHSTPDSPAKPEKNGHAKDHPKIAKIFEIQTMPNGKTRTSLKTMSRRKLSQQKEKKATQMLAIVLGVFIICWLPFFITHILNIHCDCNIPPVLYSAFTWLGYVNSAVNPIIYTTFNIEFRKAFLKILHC
Chain of wild type hSSTR5 and DOR (P35346 whole entry): as the sequence (P35346 whole entry) above
Chain of wild type hSSTR5 and DOR (P41143 whole entry): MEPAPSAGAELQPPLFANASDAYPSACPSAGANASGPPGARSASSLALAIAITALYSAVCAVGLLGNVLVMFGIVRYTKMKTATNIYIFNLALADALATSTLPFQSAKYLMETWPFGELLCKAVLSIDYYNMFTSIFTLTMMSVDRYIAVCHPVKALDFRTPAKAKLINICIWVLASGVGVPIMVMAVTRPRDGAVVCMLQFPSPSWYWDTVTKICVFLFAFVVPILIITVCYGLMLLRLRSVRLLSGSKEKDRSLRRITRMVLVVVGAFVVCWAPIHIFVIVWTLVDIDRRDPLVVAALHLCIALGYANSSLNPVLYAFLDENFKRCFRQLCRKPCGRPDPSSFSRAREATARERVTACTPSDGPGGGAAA
T3 sequence (P14416 whole entry, stated change not applied): as the sequence (P14416 whole entry) above
T3 sequence (P35346 1-318, stated change not applied): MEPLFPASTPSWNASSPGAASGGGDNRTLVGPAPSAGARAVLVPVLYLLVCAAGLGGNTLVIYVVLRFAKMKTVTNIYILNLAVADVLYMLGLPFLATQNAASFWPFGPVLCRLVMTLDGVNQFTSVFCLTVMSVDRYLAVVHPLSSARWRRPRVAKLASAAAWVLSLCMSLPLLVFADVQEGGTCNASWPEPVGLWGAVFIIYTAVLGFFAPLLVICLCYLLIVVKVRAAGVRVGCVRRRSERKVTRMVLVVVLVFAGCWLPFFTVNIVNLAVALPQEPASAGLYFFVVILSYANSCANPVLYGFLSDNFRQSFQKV
T1 sequence (P35346 1-318 limits assumed, stated change not applied): as the sequence (P35346 1-318, stated change not applied) above
T1 sequence (P41143 whole entry, stated change not applied): as the sequence (P41143 whole entry) above
T2 sequence (P35346 whole entry): as the sequence (P35346 whole entry) above
T2 sequence (P41143 whole entry): as the sequence (P41143 whole entry) above
Chain of HA-SSTR5 and D2R (P35346 whole entry): as the sequence (P35346 whole entry) above
Chain of HA-SSTR5 and D2R (P14416 whole entry): as the sequence (P14416 whole entry) above

Oc1ccc2c3c1O[C@H]1c4[nH]c5ccccc5c4C[C@@]4(O)[C@@H](C2)N(CC2CC2)CC[C@]314 [naltrindole]
effect on SST-14 inhibition of FSK-stimulated cAMP [1]: abolished | SST-14 induced cAMP inhibition in the presence of the ligand [2]: 20±4% | effect on inhibition of radioligand binding induced by GTPγS [3]: reversed | G-protein coupling efficiency ([3]; enhancement by DOR ligand): reduced coupling

C[C@@H](NC(=O)[C@@H](N)Cc1ccc(O)cc1)C(=O)NCC(=O)N(C)[C@@H](Cc1ccccc1)C(=O)NCCO [DAMGO, [D-Ala^2, N-MePhe^4, Gly-ol^5]-Enkephalin]
effect on inhibition of radioligand binding induced by GTPγS [3]: without effect

CCN1CCCC1CNC(=O)c1cc(S(N)(=O)=O)ccc1OC (stereo not shown) [sulpiride]
τavg[S] mean photobleaching time constant, D − A ([4]; donor in absence of acceptor, ± SEM): D − A: 17.9 ± 0.3 S | τavg[S] mean photobleaching time constant, D + A ([4]; donor in presence of acceptor, ± SEM): D + A: 19.2 ± 0.3 S | effect on SST inhibition of forskolin-stimulated cAMP [5]: completely abolished

CCc1cc(Cl)c(OC)c(C(=O)NC[C@@H]2CCCN2CC)c1O [eticlopride]
E[%] average effective FRET-efficiency [4]: 3±3% | τavg[S] mean photobleaching time constant, D + A [4]: D + A: 19.4 ± 0.4 S | τavg[S] mean photobleaching time constant, D − A [4]: D − A: 18.9 ± 0.3*^) S

Nc1nc2c(ncn2[C@@H]2O[C@H](COP(=O)(O)OP(=O)(O)OP(O)(O)=S)[C@@H](O)[C@H]2O)c(=O)[nH]1 [GTPγS]
decrease in specific radioligand binding [6]: 41±3%

pertussis toxin
effect on SST inhibition of forskolin-stimulated cAMP [5]: completely abolished

NCCc1ccc(O)c(O)c1 [DA, dopamine]
E[%] average effective FRET-efficiency [4]: 16±2% | τavg[S] mean photobleaching time constant, D + A [4]: D + A: 21.3 ± 0.3 S | τavg[S] mean photobleaching time constant, D − A [4]: D − A: 17.9 ± 0.3 S | inhibition at 1 µM ([5]; CHO-K1, read-out: maximum inhibition of forskolin-stimulated cAMP): 30 ± 1.7%

C[C@@H](O)[C@@H]1NC(=O)[C@H](CCCCN)NC(=O)[C@@H](Cc2c[nH]c3ccccc23)NC(=O)[C@H](Cc2ccccc2)NC(=O)[C@@H](NC(=O)[C@H](N)Cc2ccccc2)CSSC[C@@H](C(=O)N[C@H](CO)[C@@H](C)O)NC1=O [octreotide]
analgesic effect [7]: powerful analgesic effects | neurobehavioral effect [8]: Parkinsonian syndrome
